Structures are written as SMILES. Where two headings read alike, the source gives them in different places. A value given as a limit tells only on which side of the number the result lay.

What is called solubility is the concentration that dissolves in the medium under given conditions. Low values mean little dissolved substance, high ones much dissolved substance.

The format of data set [1] is physicochemical. The conditions noted are these: for Ea (degradation activation energy): 1 mg/ml. As to the method: Halofuginone HBr powder was dissolved in acetonitrile and the solution was mixed with 4 volumes ([…]) of borate buffer to yield a […] solution. Buffer solutions at pH 5.5, 6.5, and 7.5 were prepared by mixing various amounts of sodium borate solution (12 g in 240 ml DDW) to boric acid solution (12 g in 240 ml DDW). The solutions were filtered through a 0.2 micron filter into a tightly closed glass vial coated with aluminum foil to protect from light. The solutions (1.25 ml, 1 mg/ml in acetonitrile: buffer 1:4) were kept in temperature controlled incubators at 4, 25, 37 and 60° C. At time of analysis, about 50 μl of the solution was taken and immediately injected to the HPLC.
Halofuginone was determined by HPLC using the following equipment and conditions: • Instrument: HP 1050 with HPCHEM software • Column: C8, Lichospher 60 (5, μm) LichoCART 125-4, Cat. No. 1.50213 (Merck) (similar to Hypersil BDS C8 used by AminoLab) with precolumn Lichospher 100 RP-8, 5 μm, 4×4 mm, Cat. No. 1.50961 (Merck) • Column temp: ambient • Flow rate: isocratic, 1 ml/min Eluant: Acetonitrile: 0.1 M sodium citrate buffer pH3.0 at a 30:70 v/v • Detector: UV 254 nm • Sample volume: 20 μl • Run time: 15 min., halofuginone Rt=8.8 min.; degradation product Rt=11.7 Results:
Analysis: Halofuginone was analyzed by HPLC with UV detector. The retention times for halofuginone and its main degradation product (cis isomer) are 8.8 min and 11.7 min, respectively.
Stability: Halofuginone concentrations were followed for 24 hours. […] The decrease in halofuginone concentrations for the solutions kept at 25° C. and above is shown in FIG. 1 and the rate constants are summarized in Table 1. The degradation activation energies at different pH solutions were estimated from the plot of ln(Kobs) vs. 1/T and are summarized in Table 1. The activation energies were calculated from the slopes of ln(Kobs) vs. 1/T. The activation energies are in the range of 6.57-13.13 Kcal.

The format of data set [2] is physicochemical. From the text:
A commercially useful solution formulation was developed based on halofuginone dissolved in lactate buffer and the stability data shown in FIGS. 2 and 3. The stability of halofuginone in sodium lactate buffer (4% pH 4) was unaffected by the presence of saline in the final solution.

Another data set is described as follows: physchem. Format: physicochemical. The conditions noted are these: aqueous buffer, thermodynamic from solid. As to the method:
The solubility of halofuginone in several solvents was first studied. Powder of halofuginone was dissolved in the different solvents, starting from over saturation and followed by dilutions.

For the molecule `O=C(C[C@@H]1NCCC[C@H]1O)Cn1cnc2cc(Br)c(Cl)cc2c1=O` (racemic) [halofuginone, 7-bromo-6-chloro-3-[3-(3-hydroxy-2-piperidinyl)-2-oxopropyl]-4(3H)-quinazolinone], the “Ea (degradation activation energy)” value in data set [1] (pH 5.5) turned out to be 13.13 kcal; in data set [1] (pH 6.5), 8.38 kcal; in data set [1] (pH 7.5), 6.57 kcal. The “Slope [ln(Kobs)/1/T]” value in data set [1] (pH 5.5) is on record as 26,134; in data set [1] (pH 6.5) it was 16,685; in data set [1] (pH 7.5), 13,412. In addition, in data set [1] (pH 5.5-7.5), the “Activation energies (range over pH solutions)” value is given as 6.57-13.13 Kcal. In addition, the “Stability in lactate buffer pH 4.0 compared to distilled water” value in data set [2] is “higher stability”.
`O=C(CC1NCCCC1O)Cn1cnc2cc(Br)c(Cl)cc2c1=O` (stereo not drawn) [halofuginone-Hbr]: the solubility in “physchem” is ≥ 5000 µg/mL.
